This is an account of results in patent US20040091900A1, “Materials and methods for providing plants with increased resistance to environmental stress” (priority 2002, published 2004).

For one assay, the system named is SspI. Briefly: Compatible solute assay: protection of SspI activity during heat treatment. The assay is classed as biochemical. The following applies: for protection of SspI activity / protection of SspI function: 50° C. for 15 min; for protection of SspI activity, time course: at least 25 min at 50° C., without sugars almost 90% activity lost; for protection of SspI function: 14 mM sugar (physiological concentration). The method, then:
SspI (New England Biolabs) is a bacterial restriction enzyme that cuts double stranded DNA. In this assay it cuts pGEX-4T-2 circular plasmid twice and generates 3.77 kb and 1.19 kb bands in the reaction buffer (50 mM NaCl, 100 mM Tris-HCL, […] MgCl2, 0.025% Triton X-100 pH 7.5 at 25° C.). Five units of SspI in reaction buffer in the absence of maltose were exposed to 50° C. for 15 min where 50% of the enzyme activity was lost and also exposed to heat temperature in the presence of 14, 100, 200 and 400 mM maltose. Then substrate, 0.5 μg of pGEX-4T-2 circular plasmid (Amersham Biosciences, Piscataway, N.J.), was added to the reaction mixture and incubated at 37 ° C. for 1 hr. […] To visualize the products, 1% agarose gel was run and 22 μl of total 50 μl reaction was loaded on to gel. The gel was run at 100 V for 30 min and stained with EtBr to visualize the product. The top band was quantified to assess the protection by maltose. Also, the same assay was done using sucrose, trehalose and glucose to compare the ability of maltose as a compatible solute. A time course experiment was conducted where SspI was treated in the absence and in the presence of 400 mM maltose, glucose, sucrose and trehalose at 50° C. for 0, 5, 10, 15, 20 and 25 min.
Compatible solutes can stabilize proteins and membranes and contribute to cell osmotic potential during stress. The compatible solute potential of maltose was tested for three different enzymes namely; SspI, Glucose-6-phosphate dehydrogenase (G6PDH) and alcohol dehydrogenase (ADH). The restriction enzyme, SspI (FIG. 4A), cuts the substrate plasmid (pGEX-4T-2; 4.97 kb) twice leading to 1 and 4 kb plasmid fragments, when the enzyme is fully functional. […] When the intensity of the 5 kb top band and the 4 kb band was equal, the enzyme was considered to have lost 50% activity. Sspl was exposed to 50° C. for 15 min (FIG. 4A) in the absence of maltose (0 mM as a control) and in the presence of (14, 100, 200, and 400 mM) maltose. The 5 kb top band, which represented the loss of activity, was quantified to determine relative protection. When the enzyme was fully active, the top band was not visible (FIG. 4A, lane C) and the intensity of the top band increased with increased loss of enzyme activity (lane 2; 0 mM sugars). […] This protection increased with the increasing maltose concentration (FIG. 4A). At 200 and 400 mM, the intensity of the top band was much less compared to 0 mM maltose.

In assay [1] the test system is photosynthetic electron transport chain of thylakoid membranes. Put plainly: In vitro heat shock of thylakoids, whole electron transport chain assay with DCPIP. The assay is classed as biochemical, Pea. The settings on record: 40° C. for 4 min, 30% activity remained without sugars. The method, then: (§1) Pea chloroplast was isolated according to Cline (1993). Aerial portions of 50 g pea plant were chopped into small pieces into 200 ml of ice cold GR-buffer (50 mM HEPES/adjust pH 7.5 with KOH, 0.33 M sorbitol, 1 mM MgCl2, 1 mM MnCl2, 2 mM EDTA, 5 mM Na-ascorbate, 1%, BSA) and homogenized using a probe (named PTA 35/2 m). The homogenate was filtered through 1 layer of Mira cloth and centrifuged at 2000×g for 3 min in a swing-out rotor. Pellet was resuspended in GR buffer, overlayed on a Percoll gradient and centrifuged at 2000×g for 15 min in a swing out rotor. Intact plastids were collected, diluted three times with buffer (50 MM HEPES/KOH pH 8, 0.33 M sorbitol), and pelleted 1.500×g for 5 min. The pellet was resuspended in 25 ml of buffer (50 mM HEPES/KOH pH 8, 0.33 M sorbitol) and chlorophyll content was quantified.
(§2) Thylakoids were isolated according to Santarius (1996). The isolated chloroplast pellets were ruptured by resuspending at 1 mg/ml in 10 mM Hepes/KOH, pH 8, 5 mM MgCl2, and incubating 2 min on ice. Then, wash buffer 1:1 (70 mM KCl, 30 mM NaNO3, 20 mM K2SO4, 5 mM MgCl2, and 5 mM Hepes/KOH pH 7.5) was added and centrifuged 3300×g for 8 min to collect thylakoid membranes. The pellet was washed at 1 mg/ml in wash buffer and centrifuged at 3300×g for 8 min. Thylakoids were resuspended in wash buffer corresponding to 1 mg/ml chlorophyll.
Heat shock: Aliquots of 0.2 ml thylakoid in wash buffer (70 mM KCl, 30 mM NaNO3, 20 mM K2SO4, 5 mM MgCl2, and 5 mM Hepes/KOH pH 7.5) corresponding to 0.5 mg/ml chlorophyll were, exposed to heat shock at 40° C. for 4 min in the absence and presence of 2.5, 14, 28, 56, and 112 mM maltose, glucose and trehalose. Full activity of the whole electron transport chain was measured after isolation of thylakoid membranes. Five independent experiments with 3 replications each were done.
(§3) Whole electron transport chain assay, with DCPIP: This assay was done according to Hipkins and Baker (1986). Assay buffer included 0.1 M sorbitol, 50 mM Hepes-KOH pH 7.6, 5 mM NaCl, 5 mM MgCl2, 0.1 mM DCPIP. The reaction was mixed after addition of thylakoid corresponding to 25 μg/ml chlorophyll and illuminated for 10 sec at 200 μmol photons m^−2 sec^−1 light intensity. Activity of electron transport chain was determined using redox dye DCPIP reduction at 595 nm.
Maltose, trehalose and glucose were tested in vitro for compatible solute properties using thylakoid membranes for the functionality of electron transport chain against heat denaturation (FIG. 5) and freezing stress (FIG. 6). Pea thylakoids were exposed to 40° C. for 4 min (FIG. 5), where 30% of electron transport chain activity remained in the absence of compatible solute sugars. Electron transport chain activity was followed by reduction of a redox dye 2,6-dichlorophenolindophenol (DCPIP), which accepts electrons from QB of PSII and FeSA of PSI (Häder and Tevini, 1987). At physiological concentrations of 2.5 and 14 mM maltose, photosynthetic electron transport chain activity was protected 3 and 5%. respectively, during heat shock.

The test system is the same in assay [2]. Briefly: In vitro freezing stress of thylakoids, whole electron transport chain assay with DCPIP. The assay is classed as biochemical, Pea. The following applies: −15° C. for 20 hr; for electron transport chain activity protection after freezing: 60% reduction without sugars. As for the experimental part:
as §1, §2
Freezing stress: Aliqutots of 0.2 ml thylakoid in wash buffer (70 mM KCl, 30 mM NaNO3, 20 mM K2SO4, 5 mM MgCl2, and 5 mM Hepes/KOH pH 7.5) corresponding to 0.5 mg/ml chlorophyll were exposed to freezing stress at −15° C. for 20 hrs in absence and presence of 2.5, 14, 28, 56, and 112 mM maltose, glucose and trehalose. Full activity of the whole electron transport chain was measured after isolation of thylakoid membranes. Four independent experiments with three (3) replications each were done.
as §3
Pea thylakoids were frozen (FIG. 6) at −15° C. for 20 hr, which caused a 60% reduction of electron transport chain activity. […] This protection increased gradually to 93% with the increasing concentration of maltose and was very similar to that of trehalose. Glucose at 112 mM gave 47% protection, which was much less than that of maltose or trehalose.

The target in assay [3] is T1, Glucose-6-phosphate dehydrogenase (G6PDH) (Leuconostoc mesenteroides, UniProt P11411).
T1 construct: purchased Worthington Biochemical Company
T1 sequence (P11411 whole entry): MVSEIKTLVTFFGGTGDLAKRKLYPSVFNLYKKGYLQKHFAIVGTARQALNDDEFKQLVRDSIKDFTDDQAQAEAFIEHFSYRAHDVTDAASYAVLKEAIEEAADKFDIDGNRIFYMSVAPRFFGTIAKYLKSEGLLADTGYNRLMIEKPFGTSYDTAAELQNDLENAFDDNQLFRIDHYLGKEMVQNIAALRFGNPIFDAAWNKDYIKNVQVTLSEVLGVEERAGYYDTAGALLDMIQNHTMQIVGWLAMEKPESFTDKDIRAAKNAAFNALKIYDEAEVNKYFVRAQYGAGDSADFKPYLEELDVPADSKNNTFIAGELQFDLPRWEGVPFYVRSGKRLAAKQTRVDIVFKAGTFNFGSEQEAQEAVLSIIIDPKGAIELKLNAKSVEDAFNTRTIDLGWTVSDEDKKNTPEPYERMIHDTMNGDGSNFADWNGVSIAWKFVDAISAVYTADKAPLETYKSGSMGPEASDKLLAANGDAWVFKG
Briefly: Compatible solute assay: protection of G6PDH activity during heat shock. The assay is classed as biochemical. The following applies: 14, 100, 200, 400 mM sugar, 48° C. for 15 min. The method, then:
Glucose-6-phosphate dehydrogenase (G6PDH): Lyophilized G6PDH from Leuconostoc mesenteroides was purchased from Worthington Biochemical Company. G6PDH in 50 mM Tris-HCl pH 7.8 was exposed to 48° C. for 15 min, which reduced activity by 50%. G6PDH in 50 mM Tris-HCl pH 7.8 was heat shocked in the absence and presence of 14, 100, 200, and 400 mM sugars: maltose, trehalose, glucose and sucrose. […] The reaction (1.5 ml) included 2.97 mM MgCl2, 50 mM Tris-HCl pH 7.8, 0.6 mM β-NADP^+ (freshly prepared), 10 mM Glucose-6-phosphate , and 595 ng heat shocked G6PDH. Production of NADPH was followed for 3 min at 340 nm using Lambda 3A UV/VIS spectrophotometer (PERKIN-ELMER). A time course experiment with two replications was conducted where G6PDH was treated in the absence and in the presence of 400 mM maltose, glucose, sucrose and trehalose at 48° C. for 0, 10, 15, 20 and 25 min.
To test whether this protection is general, compatible solute assays were performed using G6PDH, which uses D-glucose-6-phosphate and NAD(P)^+ as substrates to produce D-glucono-δ-lactone-P and NAD(P)H (FIG. 4B). […] The same performance was seen (FIG. 7B), when the time was extended to 25 min in the presence of 400 mM of the above sugars.

For the compound `O=C[C@H](O)[C@@H](O)[C@H](O)[C@H](O)CO` [glucose, reference compound], in the assay with SspI (400 mM sugar), the “protection of SspI activity” value came to 100% and the “protection of SspI activity, time course” value is listed as 100%. In addition, in assay [1] (112 mM sugar), the “electron transport chain activity protected during heat shock” value is 30%. Moreover, in assay [2] (112 mM sugar), the “electron transport chain activity protection after freezing” value is on record as 47%.

Regarding `OC[C@H]1O[C@H](O[C@H]2[C@H](O)[C@@H](O)[C@H](O)O[C@@H]2CO)[C@H](O)[C@@H](O)[C@@H]1O` [maltose, 4-O-α-D-Glucopyranosyl-β-D-glucose], the “protection of SspI function” value in the assay with SspI was “able to partially protect SspI function”; in the assay on SspI (listed as Maltose), “performed as well as trehalose”. The “protection of SspI activity” value is on record as 80-90% in the assay on SspI (200 mM sugar) and 85-90% with SspI (400 mM sugar). In the assay on SspI (400 mM sugar), the “protection of SspI activity, time course” value is given as “about 90%”. In assay [3], the “protection of G6PDH activity” value was “performed as well as the other compatible solute sugars”. For the same compound, the “electron transport chain activity protected during heat shock” value in assay [1] (2.5 mM sugar) came out at 3%; in assay [1] (14 mM sugar), 5%; in assay [1] (112 mM sugar), 45%. Besides, the “electron transport chain activity protection after freezing” value in assay [2] (2.5 mM sugar) is recorded as 2%; in assay [2] (14 mM sugar), 24%. In addition, the “electron transport chain activity protection after freezing, reached with increasing concentration” value in assay [2] (increasing concentration (concentration not given; up to 112 mM tested)) came out at 93%.

Take `OC[C@H]1O[C@@](CO)(O[C@H]2O[C@H](CO)[C@@H](O)[C@H](O)[C@H]2O)[C@@H](O)[C@@H]1O` [sucrose]: in the assay with SspI (400 mM sugar), the “protection of SspI activity” value was 100% and the “protection of SspI activity, time course” value was determined as 100%.

Consider `OC[C@H]1O[C@H](O[C@H]2O[C@H](CO)[C@@H](O)[C@H](O)[C@H]2O)[C@H](O)[C@@H](O)[C@@H]1O` [trehalose], for which the “protection of SspI activity” value with SspI (200 mM sugar) and in the assay with SspI (400 mM sugar) was 100% throughout. Further, the “protection of SspI activity, time course” value in the assay on SspI (400 mM sugar) was determined as 100%. The “electron transport chain activity protected during heat shock” value in assay [1] (112 mM sugar) came to 54%.
